Results from patent publication US11944601B2, “Applications of ellagic acid in preparation of immunomodulatory medicines for treatment of neuromyelitis optica or immune rejection after skin transplantation” (priority 2022, dated 2024).

Tests used:
[1] = test system: EAE mice; test: EAE mice, spinal cord pathological sections (H&E, LFB, MBP staining); type: in vivo; settings: for demyelination of white matter of spinal cord (LFB) / infiltration of spinal cord inflammatory cells (H&E): day 20 p.i., EA lumbosacral, URA cervical enlargement of spinal cord
[2] = test system: Th17 cells; test: Th17 polarization of spleen cells in vitro, flow cytometry; type: cell-based, mice; settings: for polarization of Th17 cells: 3 days; for polarization of Th17 cells / Th1 cells (IFN-γ): flow cytometry; for inhibitory effect on Th17 / IL17 at 5 μM compared with the lower concentration: 5 μM vs 2.5 μM (EA) or 1 μM (URA)
Experimental: (§1) Single-cell suspension of spleen isolated from normal female C57BL/6 mice (aged 8-10 weeks) was co-cultured with anti-CD3 (0.5 μg/mL), anti-CD28 (1 μg/mL), TGF-β (2 ng/mL), IL-6 (20 ng/mL), IL-1 β (10 ng/mL), anti-IL-4 (10 μg/mL) and anti-IFN-γ (10 μg/mL) for 3 days to induce differentiation into Th17 cells. Cells were cultured with anti-CD3 (0.5 μg/mL), anti-CD28 (1 μg/mL), TGF-β (2 ng/mL) and IL-2 (10 ng/ml) for 3 days to induce differentiation into Treg cells. Cytokines were detected by flow cytometry.

[3] = test system: IL-17 family-related genes; test: RT-qPCR of Th17-related genes in naïve CD4+ T cells under Th17 polarizing conditions; type: cell-based, mice; settings: 4 h, vs PBS
Experimental: Total RNA was extracted by using RNAprep Pure Cell/Tissue Kit (TIANGEN) and then reverse transcribed with Hiscript QRT Supermix (Vazyme) according to the manufacturer's instructions. mRNA expression was determined by real-time quantitative PCR using 2×ChamQ™ SYBR® qPCR Master Mix (Vazyme). Data was quantitatively analyzed on Roche Molecular Biochemicals Light Cycler Software Version 3.5. Mouse GAPDH gene was used as endogenous control for sample normalization.

[4] = test system: EAE mice; test: EAE mice, clinical scores; type: in vivo; settings: for EAE clinical score / course of disease: administered from day 0 of immunization (prevention stage); for EAE clinical score / course of disease / EAE clinical score / development of EAE: EA intraperitoneally, URA 25 mg/kg
[5] = test system: colitis mice; test: DSS-induced acute colitis in mice; type: in vivo; settings: 100 mg/kg/d, 2.5% DSS 7 days
Experimental: The mice were randomly divided into control group and EA treatment group. 2.5% (w/v) of dextran sodium sulfate (DSS) was added to drinking water continuously for 7 days to induce acute colitis, and mice in the treatment group were fed 100 mg/kg/d EA. During the experiment, mice were weighed regularly every day and the percentage change was calculated. In addition, the feces characteristics of mice were observed every day and divided into three grades according to the methods of Berberat et al. 1: normal, 2: increased stool viscosity and easily dispersed, 3: watery diarrhea. Moreover, hidden blood of mouse feces was measured by pyramidon method. If the mouse feces contained reddish-brown or bright red blood visible to the naked eye, it was determined as fecal blood. Finally, the disease activity index (DAI) of mice was calculated according to the scoring criteria of Berberat et al. The whole segment of colon from anus to the end of cecum of mice was taken, the length was measured and photographed for recording.

[6] = test system: NMO-IgG induced cerebral lesion in mice; test: NMO-IgG induced cerebral lesion in mice, AQP4 and MBP staining of brain slices; type: in vivo; settings: 2 mg/kg/d from three days before surgery; fifth day of modeling
Description: Female C57BL/6 mice aged 6-8 weeks were purchased from Air Force Military Medical University (Xi'an, China). Mice were fed under standard light and temperature conditions. All experimental procedures and protocols were approved by the institutional animal ethics Committee of Shaanxi Normal University and carried out in accordance with the approved institutional guidelines and regulations.
WO mice were randomly divided into control group and EA group. In order to induce WO, mice were first anesthetized with 10% (w/v) of chloral hydrate and installed on a brain stereotactic apparatus (RWD Life Science), then the mouse scalp was cut along the midline, a small hole with a diameter of 1 mm was drilled on the skull 2 mm on the right side of the anterior fontanelle, and finally 5 μL microinjector (Hamilton) was inserted 3 mm deep and 2 μL of NMO-IgG and 3 μL of complement were injected at a rate of 1 μL/min. EA (2 mg/kg/d) and control solvents were administered to WO mice three days before surgery.
The mice were sacrificed on the fifth day of modeling. The brain tissue was removed from the mice and fixed in 4% (w/v) of paraformaldehyde. The frozen sections were stained with AQP4 and MBP.

[7] = test system: IFN-γ and IL-17; test: Skin transplantation model, ELISA of splenocyte culture supernatant; type: in vivo, mice
Experimental: (§2) The donor BALB/c mice were sacrificed, the dorsal hair was removed with a shaver. Appropriately sized skin grafts were cut, peeled off, washed, immersed in sterilized saline containing antibiotics for 5 minutes, and finally stored on ice for backup. The receptor C57BL/6 mice were intraperitoneally injected with 0.5% of pentobarbital sodium injection according to the body weight of 0.15 mL/20 g. After the mice were anesthetized, they were fixed on a surgical plate, the mid-dorsal parts of the mice body slightly to the lefts were selected as operation areas. Mice were shaved and disinfected with 75% alcohol to prepare graft beds. The prepared donor skin sheet was placed on the predetermined transplantation bed of recipient mice and then flattened. The skin patch was sutured to the transplant bed by discontinuous suture with 6-0 sutures. The recipient mice were administered therapeutic medicines from the day of surgery. […] The spleens of the receptor mice were taken on the 7th day to isolate single cells for flow cytometer detection. The supernatant of splenocytes was collected for enzyme-linked immunosorbent assay (ELISA).

[8] = test system: EAE mice; test: EAE mice, CNS-infiltrating mononuclear cells by flow cytometry; type: in vivo
Experimental: EAE mice were randomly divided into EA groups and URA groups. EA groups were divided into blank control group, fingolimod (FTY-720) positive control group (0.1 mg/kg) and EA administration group (0.1 mg/kg). URA groups were divided into blank control group and URA administration group (25 mg/kg). To induce EAE, mice were immunized at two sites on the back with 200 μg of myelin oligodendrocyte glycoprotein peptide 35-55 (MOG35-55) (Genescript) in 200 μL of emulsion containing 50% complete Freund's adjuvant with 5 mg/ml Mycobacterium tuberculosis H37Ra (Difco). All mice were i.p. injected with 200 ng pertussis toxin (Sigma-Aldrich) in PBS on days 0 and 2 postimmunization (p.i.). Ellagic acid (EA) and its metabolic derivative URA were purchased from Ark Pharm, Inc and respectively administered to EAE mice on the day of immunization, the 11th day p.i and the 17th day p.i.
Mice were sacrificed at day 20 p.i. Approximately 0.5 cm of the lumbosacral enlarged spinal cord was removed from the sacrificed mouse and fixed in 4% (w/v) paraformaldehyde. […]
For flow cytometry surface marker staining, the cells were incubated with surface-stained fluorescent microsphere-coupled antibodies or isotype control antibodies on ice for 30 min. […] Data were further detected by flow cytometry and analyzed by Flowjo software (Treestar, Ashland, OR).

[9] = test system: skin transplantation model; test: Skin transplantation model, H&E staining of skin grafts; type: in vivo; settings: BALB/c skin on C57BL/6 mice
[10] = test system: Treg cells; test: Treg polarization in vitro, flow cytometry; type: cell-based, mice; settings: 0.5-2 μM, 3 days
Experimental: as §1

[11] = test system: Th1, Th17 and Treg cells in the peripheral immune system; test: Skin transplantation model, spleen cells of receptor mice by flow cytometry; type: in vivo; settings: day 7, cultured 72 hours
Experimental: as §2

[12] = administered from onset stage (day 11 p.i.)
[13] = administered from peak period (day 17 p.i.)

SMILES: O=c1oc2cc(O)ccc2c2ccc(O)cc12 [URA, urolithin A]
- proportion of intact myelin sheath in the spinal cord (MBP) ([1]; compared with control mice): significantly increased
- demyelination of white matter of spinal cord (LFB) [1]: significantly relieved
- infiltration of spinal cord inflammatory cells (H&E) [1]: significantly relieved
- dose dependence of inhibition on IFN-γ ([2]; 1 μM and 5 μM): no dose-dependent inhibition
- polarization of Th17 cells ([2]; 1 μM): significantly inhibited
- Th1 cells (IFN-γ) ([2]; 1 μM): significantly inhibited
- inhibitory effect on Th17 / IL17 at 5 μM compared with the lower concentration [2]: more significantly
- polarization of Th17 cells ([2]; 5 μM): significantly inhibited
- Th1 cells (IFN-γ) ([2]; 5 μM): significantly inhibited
- expression level of IL-17 family-related genes [3]: decreased
- expression of Foxp3 [3]: promoted the expression of Foxp3 to a certain extent
- EAE clinical score / course of disease [4]: reduced the clinical scores
- EAE clinical score / development of EAE [4, 12]: reduced the clinical scores
- EAE clinical score / development of EAE [4, 13]: reduced the clinical scores

SMILES: O=c1oc2c(O)c(O)cc3c(=O)oc4c(O)c(O)cc1c4c23 [EA, ellagic acid]
- demyelination of white matter of spinal cord (LFB) [1]: significantly attenuated
- infiltration of spinal cord inflammatory cells (H&E) [1]: significantly attenuated
- colon length [5]: significantly restored
- DAI score ([5]; vs DSS control group): decreased significantly
- percentage of weight loss ([5]; vs DSS control group): significantly lower
- AQP4 protein loss rate [6]: lower than that in control group
- degree of demyelination (MBP) [6]: decreased
- polarization of Th17 cells ([2]; 2.5 μM): significantly inhibited
- inhibitory effect on Th17 / IL17 at 5 μM compared with the lower concentration [2]: better
- polarization of Th17 cells ([2]; 5 μM): significantly inhibited
- content of IFN-γ in supernatant of splenocytes [7]: significantly reduced
- content of IL-17 in supernatant of splenocytes [7]: significantly reduced
- effect on IFN-γ and IL-17 content compared with CsA [7]: better than that of CsA
- absolute number of CD45+, CD45+CD4+, CD4+IL-17+, CD4+IFN-γ+ and CD4+GM-CSF+ cells infiltrating into the CNS [8]: significantly reduced
- absolute number of pro-inflammatory microglia and macrophages infiltrating into CNS (CD45high+CD11b+, CD45low+CD11b+, CD11b+MHC II+, CD11b+TNF-α+, CD11b+Nos2+) [8]: decreased
- infiltration of inflammatory cells in the grafted skin [9]: significantly inhibited
- therapeutic effect in EAE compared with fingolimod (FTY-720) ([4]; EA 0.1 mg/kg vs FTY-720 0.1 mg/kg): equivalent
- EAE clinical score / course of disease [4]: inhibited the course of disease
- EAE clinical score / development of EAE [4, 12]: significantly inhibited
- EAE clinical score / development of EAE [4, 13]: significantly inhibited
- progress of EAE disease ([4]; oral administration from day 0 of immunization, dosage 250 times that of injection): effectively alleviate the progress of the disease
- polarization of naïve CD4+T towards Treg [10]: promote the polarization of naïve CD4+T towards Treg in a dose-dependent manner
- Th1 inflammatory cells [11]: significantly inhibited
- Th17 inflammatory cells [11]: significantly inhibited
- proportion of anti-inflammatory cell Treg [11]: increased
